According to patent publication US20180346446A1, “IRE1 SMALL MOLECULE INHIBITORS” (QUENTIS THERAPEUTICS, INC., priority 2017, published 2018):

Columns and labels:
[1] = tested on: 293T cells; test: Growth assay (cytotoxicity); format: cell-based; details: 2 day incubation
Experimental: A growth assay was performed to evaluate the compounds disclosed herein for cytotoxicity. Briefly, 5,000,000 293T cells were resuspended in 18 mL of cDMEM for a final concentration of 277,777 cells/mL. […] In a separate 96 well dilution plate, 199 uL cDMEM and 1 uL of DMSO or any one of the compounds disclosed herein (shown as Test Compound 1, 2, 3, 4, 5, or 6 below) were added to wells A4, A8, C4, C8, E4, E8, G4, and G8. 133.3 uL cDMEM was added to wells 1, 2, 3, 5, 6, and 7 in rows A, C, E and G of the dilution plate. Compounds were serially diluted leftwards in threefold dilutions (66.7 uL into 133.3 uL cDMEM). 20 uL of each dilution was transferred in duplicate (duplicates in vertical paired wells) to the cells plated in the 96-well plate shown in Table 5, to the total concentrations shown below. 200 uL cDMEM was added to media wells (wells G5-H8). The plate was then placed in a humidified chamber for a 2 day incubation, and then photographed (media was more yellow in wells with potent cell growth). Absorbance was then measured at about […] (lower for more acidic media) and about […] (higher for more acidic media).

[2] = target: T1, IRE1a (Homo sapiens, UniProt O75460); test: IRE1a Endoribonuclease Nanoluciferase Assay (XBP1 luciferase reporter in 293T cells); format: cell-based; details: 293T cells transfected with XBP1 luciferase reporter, ER stressors +/- inhibitors
Experimental: Compounds disclosed herein were assessed for disruption of IRE1 signaling using a IRE1a Endoribonuclease Nanoluciferase Assay. Briefly, 2.5×10^6 293T cells were seeded in a 10 cm^2 tissue culture plate. About 24 hours later, the cells were transfected with Effectene. In a 15 mL Tube, the following was added: 2 ug XBP1 luciferase reporter plasmid (PGK-Luc2-P2A-XBP1u-Nanoluciferase-PEST); 300 ul EC buffer; and 16 ul Enhancer, followed by incubation at room temp for 5 minutes. Next, 60 ul Effectene (Qiagen 301427) was added, followed by incubation at room temperature for 10 minutes. 2.6 mL cDMEM media was added. Old media was aspirated from the cells, followed by addition of 7 mL fresh media. Full transfection mixture was added dropwise to cells. Cells were incubated for 6 hours, followed by trypsinization, centrifugation and resuspension in 11 mL media. 100 uL of cells were plated per a well in a 96 well plate. A day later, ER stressors of choice +/− inhibitors were added. To harvest, media was aspirated from cells completely, then 50 uL 1× passive lysis buffer (Promega: E1941) was added per well and put on shaker (300 rpm) for 30 minutes at room temperature. Cells were centrifuged, and 15 uL sample per well was added to a new, opaque white 384 well plate (Corning 3570). 15 uL OneGlo (nanoluciferase kit, Promega N1630) was added. Plates were spun down, placed on shaker (300 rpm) for 10 minutes. Plates were read on luminometer, 1000 ms integration time per well. 15 uL Stop and Glo (nanoluciferase kit) was added. Plates were spun down, placed on shaker (300 rpm) for 10 minutes. Plates were read on luminometer, 1000 ms second integration time per well. Recordings are provided below in Table 4.

[3] = target: T1, IRE1a; test: In vitro FRET assay (XBP1 RNA probe cleavage by IRE1a); format: biochemical; design: purchased SignalChem; details: 2 nM IRE1a protein

T1 sequence (O75460 19-977): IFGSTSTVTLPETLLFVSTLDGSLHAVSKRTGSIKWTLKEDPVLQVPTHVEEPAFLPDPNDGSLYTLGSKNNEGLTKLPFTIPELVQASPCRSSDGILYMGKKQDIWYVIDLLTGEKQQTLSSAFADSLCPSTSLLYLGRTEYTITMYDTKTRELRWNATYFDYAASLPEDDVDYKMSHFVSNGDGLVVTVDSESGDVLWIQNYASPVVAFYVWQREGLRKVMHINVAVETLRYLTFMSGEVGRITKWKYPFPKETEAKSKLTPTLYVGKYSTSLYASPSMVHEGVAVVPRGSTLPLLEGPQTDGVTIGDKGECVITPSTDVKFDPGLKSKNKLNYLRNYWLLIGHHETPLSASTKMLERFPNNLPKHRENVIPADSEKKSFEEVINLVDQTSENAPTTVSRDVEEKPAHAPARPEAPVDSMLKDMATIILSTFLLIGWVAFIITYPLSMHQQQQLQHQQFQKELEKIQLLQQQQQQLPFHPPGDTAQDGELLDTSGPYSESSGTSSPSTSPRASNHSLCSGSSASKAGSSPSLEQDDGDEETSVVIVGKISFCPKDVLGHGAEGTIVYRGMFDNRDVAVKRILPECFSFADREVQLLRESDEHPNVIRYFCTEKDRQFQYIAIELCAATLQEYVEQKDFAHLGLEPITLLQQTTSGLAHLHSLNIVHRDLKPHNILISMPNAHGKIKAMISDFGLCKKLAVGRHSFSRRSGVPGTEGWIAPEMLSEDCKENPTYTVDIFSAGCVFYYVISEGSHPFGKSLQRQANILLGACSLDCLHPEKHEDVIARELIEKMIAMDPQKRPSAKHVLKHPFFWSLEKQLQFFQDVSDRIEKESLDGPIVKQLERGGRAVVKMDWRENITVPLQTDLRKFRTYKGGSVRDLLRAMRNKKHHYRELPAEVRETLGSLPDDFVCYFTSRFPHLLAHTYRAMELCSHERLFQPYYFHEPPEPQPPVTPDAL

Compound | % Growth at 0.185 uM [1] | % Growth at 0.5556 uM [1] | % Growth at 1.667 uM [1] | % Growth at 5 uM [1] | EC50 [2] [nM] | IC50 [3] [nM]
CCc1cc(-c2ccc(NS(=O)(=O)c3ccccc3Cl)cc2)cc2cnc(N[C@H]3CC[C@H](N)CC3)nc12.O=CO [18; Formic Acid] | D (D: >75% to ≤100%) | D (D: >75% to ≤100%) | C (C: >50% to ≤75%) | A (A: ≤25%) | ≤ 5 | ≤ 5
CCc1cc(-c2ccc(NS(=O)(=O)c3ccccc3Cl)cc2OC)cc2cnc(N[C@H]3CC[C@H](N)CC3)nc12.O=CO [19; Formic Acid] | D (D: >75% to ≤100%) | D (D: >75% to ≤100%) | C (C: >50% to ≤75%) | A (A: ≤25%) | ≤ 5 | ≤ 5
CCc1cc(-c2ncc(NS(=O)(=O)c3ccccc3Cl)cc2C)cc2cnc(N[C@H]3CC[C@H](N)CC3)nc12.O=CO [20; Formic Acid] | D (D: >75% to ≤100%) | D (D: >75% to ≤100%) | D (D: >75% to ≤100%) | C (C: >50% to ≤75%) | 50 to 100 | ≤ 5
CCc1cc(-c2cc(F)c(NS(=O)(=O)c3ccccc3Cl)cc2C)cc2cnc(N[C@H]3CC[C@H](N)CC3)nc12.O=CO [21; Formic Acid] | D (D: >75% to ≤100%) | D (D: >75% to ≤100%) | D (D: >75% to ≤100%) | B (B: >25% to ≤50%) | 5 to 50 | ≤ 5
CCc1cc(-c2ccc(NS(=O)(=O)c3ccccc3Cl)c(C)c2C)cc2cnc(N[C@H]3CC[C@H](N)CC3)nc12.O=CO [22; Formic Acid] | D (D: >75% to ≤100%) | D (D: >75% to ≤100%) | D (D: >75% to ≤100%) | A (A: ≤25%) | > 100 | 5 to 50
CCc1cc(-c2cnc(NS(=O)(=O)c3ccccc3Cl)nc2C)cc2cnc(N[C@H]3CC[C@H](N)CC3)nc12.O=CO [23; Formic Acid] | D (D: >75% to ≤100%) | C (C: >50% to ≤75%) | C (C: >50% to ≤75%) | D (D: >75% to ≤100%) | ≤ 5 | ≤ 5
CCc1cc(-c2cnc(NS(=O)(=O)c3ccccc3Cl)cn2)cc2cnc(N[C@H]3CC[C@H](N)CC3)nc12.O=CO [25; Formic Acid] | D (D: >75% to ≤100%) | D (D: >75% to ≤100%) | D (D: >75% to ≤100%) | D (D: >75% to ≤100%) | ≤ 5 | ≤ 5
CCc1cc(-c2ccc(NS(=O)(=O)c3ccccc3Cl)nc2)cc2cnc(N[C@H]3CC[C@H](N)CC3)nc12.O=CO [27; Formic Acid] | D (D: >75% to ≤100%) | D (D: >75% to ≤100%) | C (C: >50% to ≤75%) | B (B: >25% to ≤50%) | ≤ 5 | ≤ 5
CCc1cc(-c2ccc(NS(=O)(=O)c3ccccc3Cl)cn2)cc2cnc(N[C@H]3CC[C@H](N)CC3)nc12.O=CO [28; Formic Acid] | D (D: >75% to ≤100%) | D (D: >75% to ≤100%) | C (C: >50% to ≤75%) | B (B: >25% to ≤50%) | ≤ 5 | ≤ 5
CCc1cc(-c2cc(NS(=O)(=O)c3ccccc3Cl)n[nH]2)cc2cnc(N[C@H]3CC[C@H](N)CC3)nc12.O=CO [29; Formic Acid] | D (D: >75% to ≤100%) | D (D: >75% to ≤100%) | D (D: >75% to ≤100%) | D (D: >75% to ≤100%) | > 100 | ≤ 5
CCc1cc(-c2ccc(NS(=O)(=O)c3ccccc3Cl)nn2)cc2cnc(N[C@H]3CC[C@H](N)CC3)nc12.O=CO [32; Formic Acid] | D (D: >75% to ≤100%) | D (D: >75% to ≤100%) | C (C: >50% to ≤75%) | B (B: >25% to ≤50%) | ≤ 5 | ≤ 5
CCc1cc(-c2ncc(NS(=O)(=O)c3ccccc3Cl)cn2)cc2cnc(N[C@H]3CC[C@H](N)CC3)nc12.O=CO [33; Formic Acid] | D (D: >75% to ≤100%) | D (D: >75% to ≤100%) | D (D: >75% to ≤100%) | C (C: >50% to ≤75%) | ≤ 5 | ≤ 5
CCc1cc(NS(=O)(=O)c2ccccc2Cl)ccc1-c1cc(CC)c2nc(N[C@H]3CC[C@H](N)CC3)ncc2c1.O=CO [34; Formic Acid] | D (D: >75% to ≤100%) | D (D: >75% to ≤100%) | D (D: >75% to ≤100%) | A (A: ≤25%) | 5 to 50 | ≤ 5
CCc1cc(-c2ccc(NS(=O)(=O)c3ccccc3Cl)cc2F)cc2cnc(N[C@H]3CC[C@H](N)CC3)nc12.O=CO [35; Formic Acid] | D (D: >75% to ≤100%) | D (D: >75% to ≤100%) | C (C: >50% to ≤75%) | B (B: >25% to ≤50%) | ≤ 5 | ≤ 5
CCc1cc(-c2cnc(NS(=O)(=O)c3ccccc3Cl)nc2OC)cc2cnc(N[C@H]3CC[C@H](N)CC3)nc12.O=CO [46; Formic Acid] | D (D: >75% to ≤100%) | D (D: >75% to ≤100%) | D (D: >75% to ≤100%) | D (D: >75% to ≤100%) | ≤ 5 | ≤ 5
Cn1nc(NS(=O)(=O)c2ccccc2Cl)cc1-c1ccc2nc(N[C@H]3CC[C@H](N)CC3)ncc2c1 [Compound 1, N-(5-(2-(((1r,4r)-4-aminocyclohexyl)amino)quinazolin-6-yl)-1-methyl-1H-pyrazol-3-yl)-2-chlorobenzenesulfonamide] | – | – | – | – | > 100 | 5 to 50
Cc1cc(NS(=O)(=O)c2ccccc2Cl)ccc1-c1ccc2nc(N[C@H]3CC[C@H](N)CC3)ncc2c1 [Compound 2, N-(4-(2-(((1r,4r)-4-aminocyclohexyl)amino)quinazolin-6-yl)-3-methylphenyl)-2-chlorobenzenesulfonamide] | – | – | – | – | > 100 | ≤ 5
CCc1cc(-c2cnc(NS(=O)(=O)c3ccccc3Cl)cc2C)cc2cnc(N[C@H]3CC[C@H](N)CC3)nc12 [Compound 4, N-(5-(2-(((1r,4r)-4-aminocyclohexyl)amino)-8-ethylquinazolin-6-yl)-4-methylpyridin-2-yl)-2-chlorobenzenesulfonamide] | – | – | – | – | 50 to 100 | ≤ 5
Cc1cc(NS(=O)(=O)c2ccccc2Cl)ncc1-c1ccc2nc(N[C@H]3CC[C@H](N)CC3)ncc2c1 [Compound 5, N-(5-(2-(((1r,4r)-4-aminocyclohexyl)amino)quinazolin-6-yl)-4-methylpyridin-2-yl)-2-chlorobenzenesulfonamide] | – | – | – | – | > 100 | ≤ 5
CCc1cc(-c2cc(NS(=O)(=O)c3ccccc3Cl)nn2C)cc2cnc(N[C@H]3CC[C@H](N)CC3)nc12 [Compound 6, N-(5-(2-(((1r,4r)-4-aminocyclohexyl)amino)-8-ethylquinazolin-6-yl)-1-methyl-1H-pyrazol-3-yl)-2-chlorobenzenesulfonamide] | – | – | – | – | 50 to 100 | ≤ 5
N-(4-(2-(((1r,4r)-4-aminocyclohexyl)amino)quinazolin-6-yl)-3-methylphenyl)-3-chlorobenzenesulfonamide [Compound 11] | – | – | – | – | > 100 | ≤ 5
